How the values were obtained:
Format in all cases: in vivo, human
[1] = system: serum A4/testosterone (male/men); experiment: Phase 2 CAH study, Cohort 1 initial analysis: morning serum A4/testosterone, male participants; settings: 80 mg QD oral, n=1; for A4/T ratio in the patient: baseline 0.3, normal <0.2
Source text: (§1) Up to approximately 30 participants will be enrolled in the study. Each cohort will enroll at least 6 participants, with a possible expansion of up to an additional 6 participants in cohorts 1 and 2, to a maximum of 12 evaluable participants in those cohorts. The treatment duration will be up to Day 84 (12 Weeks) per participant. The total study duration will be up to 140 days (up to 4 weeks of screening, 12 weeks of treatment, and 4 weeks of follow-up) per participant. The visit frequency will be at Screening (2 visits), on Day 1 (Baseline), and at Weeks 2 (Day 14), 6 (Day 42), and 12 (Day 84). A Safety Follow-up Visit will occur 2 weeks following the last dose of CRN04894 (Week 14; Day 98), and a telephone call to collect any adverse events (AEs) will occur at 4 weeks after the last dose of CRN04894 (Week 16, Day 112). The study design is discussed in detail below.
(§2) Participants in all cohorts will continue their preexisting glucocorticoid replacement dosing regimens/doses throughout the study. In addition, starting the night of Day 1 and ending the night before the Week 12/end of treatment (EOT) visit, each cohort will administer CRN04894 between 22:00-24:00 (at approximately the same time each night) once daily (QD) before sleep.
(§3) Participants in Cohort 1 will receive 80 mg of CRN04894 QD. After at least 3 participants have completed 2 weeks of dosing with 80 mg of CRN04894 QD in Cohort 1, an interim analysis evaluating PD, PK, efficacy, and safety will be reviewed by the Safety Review Committee (SRC). If it is safe to continue, the SRC will recommend dosing of 120 mg of CRN04894 in Cohort 2. However, the SRC can recommend a lower dose (i.e., 40 mg of CRN04894 QD) in Cohort 2 based on review of safety data. The SRC also has the option to recommend increasing enrollment up to a total of 12 participants each in Cohorts 1 and/or 2. In this situation, expanded enrollment in the cohort will be completed, and data from the expanded cohort will be reviewed by the SRC prior to enrollment in the subsequent cohort.
(§4) A pharmacodynamic biomarker panel will be drawn. The biomarker panel will include the following: • 17-hydroxyprogesterone (17-OHP); • Adrenocorticotropic hormone (ACTH) (plasma); • Testosterone; • Androstenedione (A4); • Dehydroepiandrosterone (DHEA); • Dehydroepiandrosterone sulfate (DHEA-S); • 11-deoxycorticosterone (11-DOC); • 21-deoxycortisol; • 11β-hydroxyandrostenedione (11-OHA4); • 11-ketoandrostenedione (11-ketoA4); • 11β-hydroxytestosterone (11-OHT); • 11-ketotestosterone (11-ketoT); • Aldosterone; and • Renin.
(§5) Visits 2-7: Prior to receiving the morning GC replacement dose, a total of 2 blood draws (approximately 1 hour apart) for PD biomarkers will be drawn. The drawing of the PD biomarkers should be one of the first visit activities performed at the start of the visit. Visits should start as early in the morning as possible (preferably 07:00-08:00), so as to minimize any delay in administration of the morning GC dose and the timing of each study visit should be as consistent as possible. The second set of PD biomarkers should be drawn no later than 11:00 am.
(§6) The initial analysis summarizes the data of four participates (n=4) of Cohort 1 who received 80 mg of CRN04894 QD. There were three female/women participants (n=3) and one male/men participant (n=1).
(§7) Cohort 1 initial analysis of % changes in values from baseline of morning serum A4, morning serum 17-OHP, morning serum testosterone in females, morning serum testosterone in males, and morning serum A4/testosterone in males are presented in Table 4 below. These changes from baseline are also depicted in FIG. 1, FIG. 2, FIG. 4, FIG. 5, and FIG. 10, respectively.
(§8) Patients (aged ≥18 to 75, ≥16 years in USA) with classical CAH on a stable dose of glucocorticoid replacement for at least six months were enrolled and received 80 mg once daily, oral CRN04894 for 12 weeks followed by a four-week washout. […]

[2] = system: serum 17-hydroxyprogesterone (17-OHP); experiment: Phase 2 CAH study, Cohort 1 initial analysis: morning serum 17-hydroxyprogesterone (17-OHP); settings: 80 mg QD oral; for 17-OHP reduction (mean±SD): baseline 4740 to 6905 ng/dL
Source text: The secondary efficacy objective is to evaluate the efficacy of CRN04894, measured by the change from baseline in serum 17-hydroxyprogesterone (17-OHP), with the secondary efficacy endpoint being the change from baseline in the morning (before 11:00 AM) serum 17-OHP at week 12.
as §1, §2, §3, §4, §5, §6
(§9) Cohort 1 initial analysis of % changes in values from baseline of morning serum A4, morning serum 17-OHP, morning serum testosterone in females, morning serum testosterone in males, and morning serum A4/testosterone in males are presented in Table 4 below. These changes from baseline are also depicted in FIG. 1, FIG. 2, FIG. 4, FIG. 5, and FIG. 10, respectively. […]

[3] = system: serum testosterone (male/men); experiment: Phase 2 CAH study, Cohort 1 initial analysis: morning serum testosterone, male participants; settings: 80 mg QD oral, n=1
Source text: as §1, §2, §3, §4
(§10) Visits 2-7: Prior to receiving the morning GC replacement dose, a total of 2 blood draws (approximately 1 hour apart) for PD biomarkers will be drawn. […]

[4] = system: plasma adrenocorticotropic hormone (ACTH); experiment: Phase 2 CAH study, Cohort 1 initial analysis: morning plasma ACTH; settings: 80 mg QD oral; for variation in ACTH levels during treatment: morning, baseline 155 to 1009 pg/mL
Source text: as §1, §2, §3, §4, §10

[5] = system: serum androstenedione (A4); experiment: Phase 2 CAH study, Cohort 1 initial analysis: morning serum androstenedione (A4); settings: 80 mg QD oral; for A4 reduction (mean±SD): morning, baseline 116 to 604 ng/dL
Source text: The primary efficacy objective is to evaluate the efficacy of CRN04894, measured by the change from baseline in serum androstenedione (A4), with the primary efficacy endpoint being the change from baseline in the morning (before 11:00 AM) serum A4 at week 12.
as §1, §2, §3, §4, §5, §6, §9

[6] = Phase 2 CAH study, Cohort 1 initial analysis: menstruation; settings: 80 mg QD oral; three female participants in cohort
Source text: as §1, §2
Participants in Cohort 1 will receive 80 mg of CRN04894 QD. […]

[7] = system: serum testosterone (female/women); experiment: Phase 2 CAH study, Cohort 1 initial analysis: morning serum testosterone, female participants; settings: 80 mg QD oral; for testosterone reduction (mean±SD), female participants: morning, baseline 114 ng/dL
Source text: as §1, §2, §3, §4, §5, §6, §7, §8

Question: Which “% Change in morning A4/testosterone (male/men)” value ([1]; Mean, Week 2) does the source give for CCOc1ccccc1-c1ccc(N2CCN(C(=O)C3(C(F)(F)F)CCC3)C[C@H]2CC)c(C(=O)N[C@@H]2CN3CCC2CC3)n1 [CRN04894, N-[(3S)-1-Azabicyclo[2.2.2]octan-3-yl]-6-(2-ethoxyphenyl)-3-[(2R)-2-ethyl-4-[1-(trifluoromethyl)cyclobutanecarbonyl]-piperazin-1-yl]pyridine-2-carboxamide] here?
Answer: The value was −73%.

Question: And the “% Change in morning A4/testosterone (male/men)” value ([1]; Mean, Week 6)?
Answer: Its value is −79%.

Question: What about the “% Change in morning A4/testosterone (male/men)” value ([1]; Median, Week 2) of the same molecule?
Answer: Its value is −73%.

Question: What about the “% Change in morning A4/testosterone (male/men)” value ([1]; Median, Week 6) of the same molecule?
Answer: Its value is −79%.

Question: And the “A4/T ratio in the patient” value ([1]; week 2)?
Answer: The value was 0.08.

Question: And the “A4/T ratio in the patient” value ([1]; week 6)?
Answer: Its value is 0.06.

Question: And the “% Change in morning 17-OHP” value ([2]; Mean, Week 2, n=4)?
Answer: The value was −96%.

Question: What about the “% Change in morning 17-OHP” value ([2]; Mean, Week 6, n=4) of the same molecule?
Answer: The value was −97%.

Question: And the “% Change in morning 17-OHP” value ([2]; Mean, Week 12, n=2)?
Answer: The value was −83%.

Question: And the “% Change in morning 17-OHP” value ([2]; Median, Week 2, n=4)?
Answer: The value was −96%.

Question: What about the “% Change in morning 17-OHP” value ([2]; Median, Week 6, n=4) of the same molecule?
Answer: The value was −97%.

Question: What about the “% Change in morning 17-OHP” value ([2]; Median, Week 12, n=2) of the same molecule?
Answer: The value was −83%.

Question: And the “17-OHP reduction (mean±SD)” value ([2]; Week 2, n=4)?
Answer: Its value is 96%±2%.

Question: And the “17-OHP reduction (mean±SD)” value ([2]; Week 6, n=4)?
Answer: Its value is 97%±0.3%.

Question: And the “17-OHP reduction (mean±SD)” value ([2]; Week 12, n=2)?
Answer: Its value is 83%±22%.

Question: And the “17-OHP reduction, onset and maintenance” value ([2]; all participants)?
Answer: The value was “rapid and profound 17-OHP reduction within two weeks, which were maintained for the duration of therapy”.

Question: And the “% Change in morning testosterone (male/men)” value ([3]; Mean, Week 2)?
Answer: Its value is 9%.

Question: What about the “% Change in morning testosterone (male/men)” value ([3]; Mean, Week 6) of the same molecule?
Answer: Its value is 11%.

Question: And the “% Change in morning testosterone (male/men)” value ([3]; Median, Week 2)?
Answer: Its value is 9%.

Question: And the “% Change in morning testosterone (male/men)” value ([3]; Median, Week 6)?
Answer: Its value is 11%.

Question: What about the “ACTH levels, trend during treatment” value ([4]; in words) of the same molecule?
Answer: The value was “Modest variations in ACTH levels without a consistent directional trend”.

Question: And the “variation in ACTH levels during treatment” value (shortened to “variation”) ([4]; Week 2, n=4)?
Answer: Its value is −25%±57%.

Question: And the “variation” value ([4]; Week 6, n=4)?
Answer: The value was 51%±87%.

Question: And the “variation” value ([4]; Week 12, n=2)?
Answer: Its value is −13%±67%.

Question: What about the “% Change in morning serum A4” value ([5]; Mean, Week 2, n=4) of the same molecule?
Answer: The value was −86%.

Question: And the “% Change in morning serum A4” value ([5]; Mean, Week 6, n=4)?
Answer: The value was −90%.

Question: What about the “% Change in morning serum A4” value ([5]; Mean, Week 12, n=2) of the same molecule?
Answer: Its value is −88%.

Question: And the “% Change in morning serum A4” value ([5]; Median, Week 2, n=4)?
Answer: Its value is −88%.

Question: And the “% Change in morning serum A4” value ([5]; Median, Week 6, n=4)?
Answer: Its value is −94%.

Question: What about the “% Change in morning serum A4” value ([5]; Median, Week 12, n=2) of the same molecule?
Answer: Its value is −88%.

Question: What about the “A4 reduction (mean±SD)” value ([5]; Week 2, n=4) of the same molecule?
Answer: Its value is 86%±10%.

Question: And the “A4 reduction (mean±SD)” value ([5]; Week 6, n=4)?
Answer: Its value is 90%±9%.

Question: What about the “A4 reduction (mean±SD)” value ([5]; Week 12, n=2) of the same molecule?
Answer: Its value is 88%±15%.

Question: What about the “A4 reduction, onset and maintenance” value ([5]; all participants) of the same molecule?
Answer: Its value is “rapid and profound A4 reduction within two weeks, which were maintained for the duration of therapy”.

Question: What about the “A4 levels relative to upper limit of normal” value ([5]; all visits following treatment, normal 30-200 ng/dL females, 40-150 ng/dL males) of the same molecule?
Answer: Its value is “all A4 levels ending below the upper limit of normal (<ULN) at all visits following treatment”.

Question: What about the “menstruation in female participants” value [6] of the same molecule?
Answer: The value was “Two female participants in this cohort menstruated for the first time in over 2 years”.

Question: And the “% Change in morning testosterone (female/women)” value (shortened to “% Change … (female/women)”) ([7]; Mean, Week 2, n=3)?
Answer: Its value is −61%.

Question: And the “% Change … (female/women)” value ([7]; Mean, Week 6, n=3)?
Answer: The value was −65%.

Question: And the “% Change … (female/women)” value ([7]; Mean, Week 12, n=2)?
Answer: Its value is −97%.

Question: And the “% Change … (female/women)” value ([7]; Median, Week 2, n=3)?
Answer: The value was −86%.

Question: What about the “% Change … (female/women)” value ([7]; Median, Week 6, n=3) of the same molecule?
Answer: Its value is −96%.

Question: And the “% Change … (female/women)” value ([7]; Median, Week 12, n=2)?
Answer: Its value is −97%.

Question: And the “testosterone reduction (mean±SD), female participants” value (from here on “testosterone reduction (mean±SD)”) ([7]; Week 2, n=3)?
Answer: The value was 61%±53%.

Question: And the “testosterone reduction (mean±SD)” value ([7]; Week 6, n=3)?
Answer: The value was 65%±56%.

Question: What about the “testosterone reduction (mean±SD)” value ([7]; Week 12, n=2) of the same molecule?
Answer: The value was 97%±1%.
